Experimental data reported in patent US9168253B2, “Quinazoline compounds” (HUTCHISON MEDIPHARMA LIMITED, priority 2010, dated 2015).

Legend:
[1] = target: T1, EGFR (Homo sapiens, UniProt P00533); experiment: EGFR Activation-Inhibiting Test (DELFIA, EGF-stimulated A431 cells); format: cell-based; conditions: 60 min compound, EGF stimulation 45 min, read-out: IC50 (inhibition of EGF-stimulated EGFR activation)
T1 construct: endogenous in cells; host or cells: A431 (human epidermoid carcinoma)
Method: Cell seeding and starving: A431 (human epidermoid carcinoma) cells diluted in 10% […] containing DMEM are seeded at 1.3×10^4 cells/well in 96-well plates and incubated overnight. Then the cell culture medium is replaced with 90 μL/well serum-free DMEM medium. The plates are incubated overnight for starvation.
Compound dilution and treatment: the test compounds are diluted in a 3-fold series in FBS-free medium containing 5% DMSO. 10 μL/well of the diluted compound is added into cells, 10 μL/well of 5% DMSO without test compound is added into the control wells. Duplication study is performed for each test point. Then, the plates are incubated at 37° C. for 60 minutes in a 5% CO2 incubator. 10 μL/well of 200 ng/mL EGF (Biosource, PHG0064) is added and incubate the plates at 37° C. for 45 minutes in the 5% CO2 incubator.
Lysate preparation: the medium is removed, and 100 μL/well of 50 mM Tris-Cl, pH 8.0 cell lysis buffer (containing 0.5 M NaCl, 0.2 mM EDTA, 0.1% Triton X-100, 1 μg/mL aprotinin, 0.75 μg/mL leupeptin, 1 μg/mL pepstatin, 1 mM DTT, 500 μM sodium vanadate, and 1 mM PMSF) is added into each well to lyse cells. The protease inhibitors are added right before use. The cell lysate is frozen at −80° C. overnight.
Plate coating and blocking: 100 μL/well of 0.5 μg/ml anti-EGFR antibody (Perkin Elmer, AF231) diluted in PBS is added to a 96-well DELFIA plate (Perkin Elmer, AAAND-0001) and incubated at 25° C. overnight with gentle shaking. The solution is discarded. The plate is washed 3 times with 200 μL/well of DELFIA wash buffer (PBS buffer containing 0.05% Tween-20). 200 μL/well of blocking buffer (PBS containing 0.137 M of NaCl, 0.0027 M of KCl, 0.01 M of Na2PO4.12H2O, 0.0015 M of KH2PO4, pH7.4, and 1% BSA) is added into each well and the plate is incubated at 25° C. for 2 h with gentle shaking.
Binding: the blocking buffer is discarded and the plate is washed with 200 μL/well of DELFIA wash buffer 3 times. 80 μL/well of the sample diluent (20 mM Tris-Cl/pH7.3, 150 mM NaCl, 0.1% of BSA, and 0.05% Tween-20) and 20 μL/well of cell lysate are then added to each well. Incubate the plate at 25° C. for additional 1 h with gentle shaking.
Detection: The plate is washed again with 200 μL/well of DELFIA wash buffer for 3 times. 100 μL/well of […] Eu-PT66 antibody (Perkin Elmer, AD0040) diluted in DELFIA assay buffer (Perkin Elmer, 1244-106) is added and incubate the plate at 25° C. for 1 h with gentle shaking. After washing with 200 μL/well of DELFIA wash buffer 3 times, 100 μL/well of DELFIA enhancement buffer (Perkin Elmer, 4001-0010) is added. Incubate the plate at 25° C. for 30 min with gentle shaking.
Readout: fluorescence signal is measured at 340 nm excitation and 620 nm emission on Victor^3 (PerkinElmer).
Inhibition rates are calculated as follow:
[Fluorescence Readout]Treated is the readout of the wells treated with test compound upon EGF stimulation
[Fluorescence Readout]Untreated is the readout of the wells with neither compound treatment nor EGF stimulation, which is used as cell background signal
[Fluorescence Readout]EGF is the readout of wells with EGF stimulation, but no compound treatment, which is used as maximal signal
IC50 is calculated using XL-Fit 2.0 software.

[2] = target: T2, hERG channels (Homo sapiens, UniProt Q12809); experiment: hERG assay, manual whole-cell patch clamp; format: cell-based; conditions: CHO cells expressing hERG, five concentrations, read-out: IC50 for inhibition of hERG tail currents
T2 construct: expressed in transfected cells; host or cells: CHO
Method: A CHO cell line stably transfected with hERG cDNA and expressing hERG channels was used for the study. Cells were cultured in medium containing:
For the electrophysiological recordings the following solutions were used
Whole-cell recordings were performed using a EPC10 USB(HEKA). The cells were voltage clamped at a holding potential of −80 mV. The hERG current was activated by depolarizing at +20 mV for 2 sec, after which the current was taken back to −50 mV for 2 sec to remove the inactivation and observe the deactivating tail current. The first step at −50 mV was used as a baseline for measuring the tail current peak amplitude.
Compounds were prepared as a 10 mM DMSO stock in a glass vial. The stock solution was mixed vigorously for 10 minute at room temperature. For testing, the compound was diluted in a glass vial using solution; the dilution was prepared no longer than 30 minutes before use. Equal amounts of DMSO (0.1%) were present at final dilution.
After achieving whole-cell configuration, the cells were monitored for 90 sec to assess stability and washed with external solution for 66 sec. The voltage protocol described above was then applied to the cells every 20 sec throughout the whole procedure. Only stable cells with recording parameters above threshold were allowed to enter the drug addition procedure. […]
Data were analyzed using Pulsefit and Origin 7 (Originlab Corporation).

[3] = system: Fadu (human head and neck, pharynx carcinoma) xenograft; experiment: In vivo anti-tumor test, FaDu subcutaneous xenograft; conditions: FaDu xenograft in nude mice
Method: (§1) Human tumor cell lines: Fadu (human head and neck, pharynx carcinoma, HTB-43), HCC827 (human non small cell lung cancer, NSCLC; CRL-2868), A431 (human epidermoid carcinoma, CRL-2592) cell lines were purchased from ATCC; Fadu, HCC827 and A431 cells were grown in EMEM, RPMI 1640 and DMEM medium plus 10% FBS respectively. These cells were incubated in a humidifier incubator at 37° C. and under 5% CO2.
(§2) Animals: Athymic mice (6-8 weeks) were purchased from Shanghai SLAC laboratory animal CO. LTD. The animals were housed in the SPF environment, 4 animals/cage under standard conditions (12:12 h light/dark, 40-50% relative humidity at 20-25° C.) and were given free access to Co^60 radiated-sterile diet and sterile water.
(§3) Agents: Test compounds were formulated in sterile 0.5% CMC-Na at different concentrations (0.05˜1.0 mg/mL), and then stored at 4° C.
(§4) Subcutaneous implantation of tumor cells and anti-tumor efficacy study: The tumor cells were incubated at 37° C. in a 5% CO2 incubator until they reached approximately 80% confluence. Cells were detached by 0.05% Trypsin-EDTA, centrifuged at 800 rpm, and the cells were suspended in serum free medium. The concentration was adjusted for nude mice implantation. The nude mice were quarantined for several days before implantation, and 3×10^6 FaDu or A431 cells in 0.1 mL medium, or 5×10^6 HCC827 cells in the 0.2 mL medium were subcutaneously injected to the right lateral flank of nude mice.
(§5) One to three weeks after inoculation, when average tumor volume reached 100-300 mm^3, the animals were randomized and divided into vehicle and compound treated groups. The mice were orally administrated with either the vehicle, 0.5% CMC-Na, or the test compounds at different dose levels once a day. Tumor volume was measured 2-3 times per week by caliper for length and width, and was calculated using the formula: Tumor volume (TV, mm^3)=width^2×length/2. Animal body weight and behavior were observed during the experiment. […]
(§6) Tumor volume data were expressed as Mean±SD. […]

[4] = system: HCC827 (human non small cell lung cancer, NSCLC) xenograft; experiment: In vivo anti-tumor test, HCC827 subcutaneous xenograft; conditions: HCC827 xenograft in nude mice
Method: as §1, §2, §3, §4
One to three weeks after inoculation, when average tumor volume reached 100-300 mm^3, the animals were randomized and divided into vehicle and compound treated groups. The mice were orally administrated with either the vehicle, 0.5% CMC-Na, or the test compounds at different dose levels once a day. Tumor volume was measured 2-3 times per week by caliper for length and width, and was calculated using the formula: Tumor volume (TV, mm^3)=width^2×length/2. Animal body weight and behavior were observed during the experiment. Tumor growth inhibition was calculated as follows: TGI (%)=100−(T−T0)/(C−C0)×100%, where T represents mean tumor volume of a treated group on a specific day during the experiment, T0 represents mean tumor volume of the same treated group on the first day of treatment, C represents mean tumor volume of a control group on the specific day during the experiment, and C0 represents mean tumor volume of the same control group on the first day of treatment.
Tumor volume data were expressed as Mean±SD. One-way ANOVA was used for multiple comparisons and Student's t-test was used for comparison with vehicle control. Differences were considered statistically significant at P<0.05.

[5] = system: A431 (human epidermoid carcinoma) xenograft; experiment: In vivo anti-tumor test, A431 subcutaneous xenograft; conditions: A431 xenograft in nude mice
Method: as §1, §2, §3, §4, §5, §6

T1 sequence (P00533 25-1210): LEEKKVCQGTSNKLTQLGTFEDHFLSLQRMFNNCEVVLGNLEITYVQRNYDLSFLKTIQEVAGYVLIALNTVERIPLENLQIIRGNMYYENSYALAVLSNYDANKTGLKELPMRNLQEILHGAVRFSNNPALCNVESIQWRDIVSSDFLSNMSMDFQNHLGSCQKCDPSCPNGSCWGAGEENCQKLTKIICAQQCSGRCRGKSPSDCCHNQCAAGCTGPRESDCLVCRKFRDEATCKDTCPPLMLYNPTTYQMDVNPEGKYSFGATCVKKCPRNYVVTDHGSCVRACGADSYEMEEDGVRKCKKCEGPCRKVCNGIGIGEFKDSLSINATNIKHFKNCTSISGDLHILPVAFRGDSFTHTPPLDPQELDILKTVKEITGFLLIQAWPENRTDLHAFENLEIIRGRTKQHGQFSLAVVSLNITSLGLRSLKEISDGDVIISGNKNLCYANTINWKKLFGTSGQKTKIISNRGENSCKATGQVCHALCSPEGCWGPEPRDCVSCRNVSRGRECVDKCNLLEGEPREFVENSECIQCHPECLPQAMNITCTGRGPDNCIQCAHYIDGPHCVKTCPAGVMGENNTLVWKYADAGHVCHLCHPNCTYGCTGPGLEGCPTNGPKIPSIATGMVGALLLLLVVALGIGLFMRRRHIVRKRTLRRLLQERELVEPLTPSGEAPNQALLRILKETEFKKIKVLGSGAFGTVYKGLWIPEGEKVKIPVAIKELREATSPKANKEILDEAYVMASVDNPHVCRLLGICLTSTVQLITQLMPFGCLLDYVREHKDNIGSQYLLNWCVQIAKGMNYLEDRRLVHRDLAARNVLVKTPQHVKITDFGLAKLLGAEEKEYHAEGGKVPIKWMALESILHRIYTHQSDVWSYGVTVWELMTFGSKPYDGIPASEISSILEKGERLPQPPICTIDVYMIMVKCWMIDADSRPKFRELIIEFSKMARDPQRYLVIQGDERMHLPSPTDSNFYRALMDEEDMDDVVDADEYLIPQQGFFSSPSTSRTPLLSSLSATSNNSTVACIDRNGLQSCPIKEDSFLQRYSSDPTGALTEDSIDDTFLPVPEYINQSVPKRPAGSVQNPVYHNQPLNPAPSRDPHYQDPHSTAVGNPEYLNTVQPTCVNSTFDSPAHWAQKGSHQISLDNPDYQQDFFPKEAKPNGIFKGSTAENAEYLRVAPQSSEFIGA
T2 sequence (Q12809 whole entry): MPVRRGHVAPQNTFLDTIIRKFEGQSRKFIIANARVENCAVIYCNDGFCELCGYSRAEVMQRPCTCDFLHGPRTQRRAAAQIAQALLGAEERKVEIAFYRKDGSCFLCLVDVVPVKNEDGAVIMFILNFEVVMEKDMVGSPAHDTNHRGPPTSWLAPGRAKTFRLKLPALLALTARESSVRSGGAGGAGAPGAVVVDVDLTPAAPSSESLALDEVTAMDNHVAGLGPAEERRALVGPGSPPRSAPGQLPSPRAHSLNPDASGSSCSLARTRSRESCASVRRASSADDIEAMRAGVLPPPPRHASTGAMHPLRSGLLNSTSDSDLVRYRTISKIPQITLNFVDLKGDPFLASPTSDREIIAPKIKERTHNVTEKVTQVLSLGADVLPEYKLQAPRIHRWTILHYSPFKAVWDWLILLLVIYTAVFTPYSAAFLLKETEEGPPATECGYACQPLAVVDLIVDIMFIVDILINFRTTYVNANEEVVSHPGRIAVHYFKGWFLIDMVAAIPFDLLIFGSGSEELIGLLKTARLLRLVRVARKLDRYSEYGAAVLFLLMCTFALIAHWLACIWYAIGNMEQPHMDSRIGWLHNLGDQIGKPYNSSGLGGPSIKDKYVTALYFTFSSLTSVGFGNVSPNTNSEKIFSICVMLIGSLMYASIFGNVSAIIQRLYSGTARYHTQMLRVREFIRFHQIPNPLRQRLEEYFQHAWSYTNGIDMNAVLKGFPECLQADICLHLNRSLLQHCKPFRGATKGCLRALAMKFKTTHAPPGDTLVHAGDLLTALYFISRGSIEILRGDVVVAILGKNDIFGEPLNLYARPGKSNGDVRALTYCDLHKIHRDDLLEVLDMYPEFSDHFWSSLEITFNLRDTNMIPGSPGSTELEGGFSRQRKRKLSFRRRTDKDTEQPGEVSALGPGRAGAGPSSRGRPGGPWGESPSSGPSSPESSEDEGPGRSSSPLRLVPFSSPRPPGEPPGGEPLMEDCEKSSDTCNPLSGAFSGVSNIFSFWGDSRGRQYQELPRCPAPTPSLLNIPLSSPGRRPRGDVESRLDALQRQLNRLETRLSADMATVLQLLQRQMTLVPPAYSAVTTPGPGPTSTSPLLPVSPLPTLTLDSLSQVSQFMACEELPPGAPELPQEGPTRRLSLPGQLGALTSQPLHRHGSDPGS

With COc1cc2ncnc(Nc3ccc4c(cnn4Cc4cccc(F)c4)c3)c2cc1NC(=O)N1C[C@H]2CCN(C)[C@H]2C1 [Compound 1, (3aR,6aR)—N-(4-(1-(3-fluorobenzyl)-1H-indazol-5-ylamino)-7-methoxyquinazolin-6-yl)-1-methylhexahydropyrrolo[3,4-b]pyrrole-5(1H)-carboxamide] the IC50 [1] was 185 nM.
Work on COc1cc2ncnc(Nc3ccc4c(cnn4Cc4cccc(F)c4)c3)c2cc1NC(=O)N1C[C@@H]2CCN(C)[C@@H]2C1 [Compound 2, (3aS,6aS)—N-(4-(1-(3-fluorobenzyl)-1H-indazol-5-ylamino)-7-methoxyquinazolin-6-yl)-1-methylhexahydropyrrolo[3,4-b]pyrrole-5(1H)-carboxamide] yielded an IC50 [1] of 439 nM.
For C#Cc1cccc(Nc2ncnc3cc(OC)c(NC(=O)N4C[C@H]5CCN(C)[C@H]5C4)cc23)c1 [Compound 3, (3aR,6aR)—N-(4-(3-ethynylphenylamino)-7-methoxyquinazolin-6-yl)-1-methyl-hexahydropyrrolo[3,4-b]pyrrole-5(1H)-carboxamide], the IC50 [1] was 6 nM, the IC50 [2] was 9300 ± 1200 nM and the TGI % ([3]; 2 mpk p.o. qd x 21 days) was 46.1%. For the same compound, the TGI % ([3]; 5 mpk p.o. qd x 21 days) was 66.9%, the TGI % ([3]; 10 mpk p.o. qd x 21 days) was 95.2% and the TGI % ([4]; 0.5 mpk p.o. qd x 21 days) was 59.2%. The TGI % ([4]; 1 mpk p.o. qd x 21 days) was 114.7%, the TGI % ([4]; 2 mpk p.o. qd x 21 days) was 127.8% and the TGI % ([4]; 5 mpk p.o. qd x 21 days) was 140.8%. It also gave a TGI % ([5]; 2 mpk p.o. qd x 21 days) of 21.3%, a TGI % ([5]; 5 mpk p.o. qd x 21 days) of 62.8% and a TGI % ([5]; 10 mpk p.o. qd x 21 days) of 85.3%.
In the case of COc1cc2ncnc(Nc3ccc(OCc4cccc(F)c4)c(Cl)c3)c2cc1NC(=O)N1C[C@@H]2CCN(C)[C@@H]2C1 [Compound 4, (3aS,6aS)—N-(4-(3-chloro-4-(3-fluorobenzyloxy)phenylamino)-7-methoxyquinazolin-6-yl)-1-methylhexahydropyrrolo[3,4-b]pyrrole-5(1H)-carboxamide], the IC50 [1] is reported as 16 nM.
With COc1cc2ncnc(Nc3ccc(OCc4cccc(F)c4)c(Cl)c3)c2cc1NC(=O)N1C[C@H]2CCN(C)[C@H]2C1 [Compound 5, (3aR,6aR)—N-(4-(3-chloro-4-(3-fluorobenzyloxy)phenylamino)-7-methoxyquinazolin-6-yl)-1-methylhexahydropyrrolo[3,4-b]pyrrole-5(1H)-carboxamide] the IC50 [1] was 44 nM.
CN1CC[C@H]2CN(C(=O)Nc3ccc4ncnc(Nc5ccc(OCc6cccc(F)c6)c(Cl)c5)c4c3)C[C@H]21 [Compound 6, (3aS,6aS)—N-(4-(3-chloro-4-(3-fluorobenzyloxy)phenylamino)quinazolin-6-yl)-1-methylhexahydropyrrolo[3,4-b]pyrrole-5(1H)-carboxamide] was tested, and the IC50 [1] was 210 nM.
CN1CC[C@@H]2CN(C(=O)Nc3ccc4ncnc(Nc5ccc(OCc6cccc(F)c6)c(Cl)c5)c4c3)C[C@@H]21 [Compound 7] showed an IC50 [1] of 241 nM.
